Test results taken from patent publication US20200138840A1, “PHARMACEUTICAL COMPOSITION AND TUMOR IMMUNOACTIVITY PROMOTER” (SENTAN Pharma inc., priority 2017, published 2020).

Key:
[1] = test system: Hepatoma cell line Huh-7; assay: Anticancer effect of 2DG in nude mice subcutaneously transplanted with hepatoma cell line (Example 1); assay type: in vivo, nude mice (BALBc-nu/nu); details: for tumor volume over time (FIG. 2): combination with sorafenib 5 mg/kg/day orally
Experimental: The Hepatoma cell line Huh-7 (obtained from Cell Resource Center for Biomedical Research, Cell Bank, Institute of Development, Aging and Cancer, National University Corporation Tohoku University) to be transplanted to the mice was cultured at 37° C. using a 5% CO2 incubator. Dulbecco's modified Eagle's medium (DMEM) containing 10% fetal bovine serum was used as the medium for culturing Huh-7 cells. Six-week-old nude mice (male, BALBc-nu/nu mice) were subcutaneously transplanted with 1×10^7 Huh-7 cells. In order to confirm the survival and growth of the transplanted cells, the measurement of tumor size was carried out using a pair of vernier calipers. […] (a) Control group: 200 μL of PBS was administered intraperitoneally every day. […] At the time points of 7 days, 14 days and 21 days after the start of administration, the average amount of meals taken per day was calculated from the amount of meals taken in the previous week. […] Further, 21 days after the start of administration, the tumors were observed, blood was collected from the mice in accordance with a conventional method, and the livers were removed from the mice. The serological profiles of the collected blood samples were measured using SPOTCHEM (trademark) EZ SP-4430 system (manufactured by Arkray, Inc.). In addition, the weight of the removed livers was measured.

[2] = Side effects in Example 1: body weight, meals, blood glucose, serological profiles, liver weight; assay type: in vivo, nude mice (BALBc-nu/nu); details: for Fasting blood glucose / Liver weight / Total cholesterol / ALT / Neutral fat: day 21
Experimental: Six-week-old nude mice (male, BALBc-nu/nu mice) were subcutaneously transplanted with 1×10^7 Huh-7 cells. In order to confirm the survival and growth of the transplanted cells, the measurement of tumor size was carried out using a pair of vernier calipers. At the time point when the tumors in the mice had reached a volume of from 100 to 150 mm^3, the mice were divided into the following six groups.
In each of the groups, the tumor volume and the body weight of the mice were measured every 3 days from the start of administration. At the time points of 7 days, 14 days and 21 days after the start of administration, the average amount of meals taken per day was calculated from the amount of meals taken in the previous week. […] Further, 21 days after the start of administration, the tumors were observed, blood was collected from the mice in accordance with a conventional method, and the livers were removed from the mice. The serological profiles of the collected blood samples were measured using SPOTCHEM (trademark) EZ SP-4430 system (manufactured by Arkray, Inc.). In addition, the weight of the removed livers was measured.

[3] = Side effects in Example 3: body weight, meals, blood glucose, serological profiles, liver weight; assay type: in vivo, nude mice; details: day 21
Experimental: Nude mice subcutaneously transplanted with Huh-7 cells, prepared in the same manner as in Example 1, were divided in the following six groups.
In each of the groups, the tumor volume and the body weight of the mice were measured in the same manner as in Example 1, and the average amount of meals taken per day was calculated.

[4] = test system: CD3 positive T cells; assay: Immunostaining of liver tumor tissue with CD3 antibody (Example 10); assay type: in vivo, STAM mice (C57BL6/N); details: 2DG 100 mg/kg/day i.p. every day; high dose 2DG-PLGA 200 μL of 100 mg/mL once a week
Experimental: Further, the immunostaining of the liver tumor tissue was carried out using a rabbit monoclonal CD3 antibody (manufactured by GeneTex, Inc.).

[5] = cited from earlier work
[6] = high dose 2DG 1,000 mg/kg/day i.p. (alone or with sorafenib 5 mg/kg/day orally)
[7] = low dose 2DG 100 mg/kg/day i.p. (alone or with sorafenib 5 mg/kg/day orally)
[8] = high dose 2DG 1,000 mg/kg/day i.p., day 14 after start
[9] = 2DG 100 mg/kg/day into jugular vein once a week
[10] = 2DG 100 mg/kg/day intraperitoneally every day

O=CC[C@@H](O)[C@H](O)[C@H](O)CO [2DG, 2-Deoxy-D-glucose]
size of the tumors (appearance, FIG. 1) ([1]; 21 days after start, 2DG i.p. every day, sorafenib 5 mg/kg/day orally): decreased the size of the tumors
tumor volume over time (FIG. 2) ([1]; high dose 2DG 1,000 mg/kg/day i.p. every day): significant decrease in the tumor volume in a dose-dependent manner
tumor volume over time (FIG. 2) ([1]; low dose 2DG 100 mg/kg/day i.p. every day): significant decrease in the tumor volume in a dose-dependent manner
Fasting blood glucose [2, 6]: 77.2 ± 28.0 mg/dL
Liver weight [2, 6]: 1.10 ± 0.1 g
Total cholesterol [2, 6]: 110.8 ± 23.6 mg/dL
ALT [2, 7]: 34.8 ± 16.2 mg/dL
Fasting blood glucose [2, 7]: 79.0 ± 10.9 mg/dL
Liver weight [2, 7]: 1.21 ± 0.1 g
Neutral fat [2, 7]: 103.2 ± 24.7 mg/dL
Total cholesterol [2, 7]: 122.6 ± 19.8 mg/dL
blood glucose level after administration (FIG. 5) [2, 8]: marked increase in the blood glucose level
consciousness after administration [2, 8]: disturbance of consciousness was observed
ALT [3, 9]: 49 ± 20.9 U/L
Fasting blood glucose [3, 9]: 73.8 ± 14.0 mg/dL
Liver weight [3, 9]: 1.10 ± 0.19 g
Neutral fat [3, 9]: 67.6 ± 28.5 mg/dL
Total cholesterol [3, 9]: 115.4 ± 10.1 mg/dL
ALT [3, 10]: 38.6 ± 23.5 U/L
Fasting blood glucose [3, 10]: 83.2 ± 38.2 mg/dL
Liver weight [3, 10]: 1.35 ± 0.19 g
Total cholesterol [3, 10]: 113.8 ± 25.3 mg/dL
infiltration of T cells into the interior of tumors (FIG. 29) [4]: increased infiltration of T cells
side-effects ([5]; dose of from 63 to 88 mg/kg): severe side-effects such as gastrointestinal bleeding, long QT syndrome and hyperglycemia were observed
tolerated dose ([5]; phase 1 clinical trial, oral administration, combined with docetaxel): ≤ 63 mg/kg

CNC(=O)c1cc(Oc2ccc(NC(=O)Nc3ccc(Cl)c(C(F)(F)F)c3)cc2)ccn1 [Sorafenib, sorafenib]
ALT ([2]; sorafenib 5 mg/kg/day orally): 35.0 ± 10.3 mg/dL
Fasting blood glucose ([2]; sorafenib 5 mg/kg/day orally): 84.8 ± 11.8 mg/dL
Neutral fat ([2]; sorafenib 5 mg/kg/day orally): 95.2 ± 35.7 mg/dL
Total cholesterol ([2]; sorafenib 5 mg/kg/day orally): 120.4 ± 17.8 mg/dL
